# Laboratory results as given in PMC12291762 (Antioxidants, 2025).
# What was measured:
# COX-2 = target: T1, COX-2 (Homo sapiens, UniProt P35354); assay: Fluorometric COX-2 inhibitor screening kit; assay type: biochemical; settings: mean ± standard error, three independent measurements
# T1 construct: purchased Abcam ab283401
# T1 sequence (P35354 18-604): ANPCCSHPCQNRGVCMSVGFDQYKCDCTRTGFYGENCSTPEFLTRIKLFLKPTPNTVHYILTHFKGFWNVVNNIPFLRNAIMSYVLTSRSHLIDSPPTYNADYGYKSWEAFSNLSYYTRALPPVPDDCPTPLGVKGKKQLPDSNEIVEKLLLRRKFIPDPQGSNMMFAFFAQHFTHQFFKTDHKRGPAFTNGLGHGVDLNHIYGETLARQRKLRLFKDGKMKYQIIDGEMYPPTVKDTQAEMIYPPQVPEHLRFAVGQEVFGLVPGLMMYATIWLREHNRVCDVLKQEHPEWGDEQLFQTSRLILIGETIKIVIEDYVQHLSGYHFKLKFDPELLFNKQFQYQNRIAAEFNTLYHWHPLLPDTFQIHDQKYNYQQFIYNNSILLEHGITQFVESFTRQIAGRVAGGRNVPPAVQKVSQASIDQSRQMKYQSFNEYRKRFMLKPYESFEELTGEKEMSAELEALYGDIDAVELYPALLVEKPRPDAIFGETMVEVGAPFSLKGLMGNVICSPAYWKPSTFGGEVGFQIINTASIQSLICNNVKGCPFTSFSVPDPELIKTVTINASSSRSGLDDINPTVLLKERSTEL
# Procedure: The inhibitory activity of the tested compounds against COX-1 and COX-2 isoforms was assessed using fluorometric cyclooxygenase inhibitor screening kits (Catalog Numbers ab204698 and ab283401, respectively; Abcam, Cambridge, UK). These assays detect the formation of prostaglandin G2, a product of COX enzymatic activity, via fluorometric measurement.
# Stock solutions of the test compounds were prepared at a concentration of 5 mM in DMSO and subsequently diluted with the same solvent to obtain the test solutions. For the assay preparation, 2 μL of each test solution was diluted with 8 μL of COX assay buffer. The solvent control (SC) consisted of 2 μL of DMSO and 8 μL of assay buffer, while the enzyme control (EC) contained 10 μL of assay buffer alone. Sample wells (S) received 10 μL of the diluted test solutions. All other steps were in accordance with the manufacturer’s protocol and the previously published article. Fluorescence was measured kinetically over a 10 min period at 25 °C, using the excitation and emission wavelengths of 535 nm and 587 nm, respectively. The percentage of inhibition was calculated as follows:(3) % Relative Inhibition=Slope of EC−Slope of S/Slope of EC×100
# Fluorescence measurements were conducted on a BioTek Synergy LX multi-mode reader (Winooski, VT, USA).
# [1] = tested on: local oxidative stress parameters; assay: Local redox state (edema-affected paw tissue homogenate) 24 h after carrageenan; assay type: in vivo, Wistar albino rats; settings: inflamed paw tissue; for Local nitrites level (reduction, p < 0.05): comparator not given
# Procedure: Following 24 h of carrageenan-induced paw edema inflammation model and intraperitoneal anesthesia induced by ketamine/xylazine (100/10 mg/kg of BW), the animals were sacrificed, while whole-blood samples and edema-affected paw tissues were isolated. After centrifugation of whole blood, plasma and erythrocyte lysate samples were separated for further examination of the applied compounds’ effects on the systemic redox balance state. Pro-oxidative markers including superoxide anion radical (O2∙^−), hydrogen peroxide (H2O2) nitrites (NO2^−), and index of lipid peroxidation measured as thiobarbituric acid (TBA) reactive substances (TBARS) were determined from plasma samples, while the antioxidant capacity, including superoxide dismutase (SOD) and catalase (CAT) activity, as well as the reduced glutathione (GSH) level were examined in erythrocyte lysate samples [46]. […] Edema-affected paw tissue samples were weighed (100 mg) and homogenized (OmniPrep™ multi-sample homogenizer, Omni International, Kennesaw, GA, USA) in 900 µL phosphate buffer on ice (pH = 7.4), and centrifuged at 12,000 rpm for 20 min. These supernatant samples were used for the determination of the aforementioned pro-oxidative and antioxidative parameters levels. All oxidative stress analyses were performed spectrophotometrically using a Shimadzu UV 1800 spectrophotometer (Kyoto, Japan).
# Determination of the O2∙^− level was conducted by adding 950 µL of a Nitro Blue Tetrazolium (NBT) mixture with TRIS buffer in 50 µL of sample, measured at the 550 nm wavelength. The level of H2O2 was determined during the oxidation of phenol red by H2O2, which was catalyzed with horseradish peroxidase and measured at the 610 nm wavelength. Indirect measurement of nitrites was performed by the precipitation of samples with 30% sulfo-salicylic acid, followed by vortexing and centrifugation at 3000 rpm for 15 min. The equal volumes of isolated supernatant and Griess’ reagent (containing 1% sulfanilamide in 5% phosphoric acid/0.1% naphthalene ethylenediamine-dihydrochloride) were incubated for 10 min and measured at the 550 nm wavelength. The TBARS concentration was determined by adding 400 µL of sample to 200 µL of TBA in 0.05 M NaOH, followed by 15 min incubation at 100 °C. Measurement was performed at the 530 nm wavelength.
# The epinephrine method was used for SOD determination. By adding 100 µL of sample, the same volume of epinephrine, and 1000 µL of carbonate buffer, the measurement was performed at the 470 nm wavelength. The determination of CAT activity was based on the preparation of a mixture containing 100 µL of sample, 50 µL of catalase buffer, and 1000 µL of 10 mM H2O2, which was measured at the 230 nm wavelength.
Compound,IC50 (COX-2),Local SOD activity compared to Dex rats [1],Local SOD activity compared to untreated (negative control) rats [1],Local TBARS level compared to Dex group [1],Local TBARS level compared to Sol rats [1],"Local nitrites level (reduction, p < 0.05) [1]"
"C[C@H](C(=O)NCC(=O)O)c1cccc(C(=O)c2ccccc2)c1 [Compound 1, (S)-(2-(3-benzoylphenyl)propanoyl)glycine]",> 100 µM,,,,,
"C[C@H](C(=O)NCCCC(=O)O)c1cccc(C(=O)c2ccccc2)c1 [Compound 5, (S)-4-(2-(3-benzoylphenyl)propanamido)butanoic acid]",> 100 µM,,,,,markedly reduced

# The next lines start with results.
IC50 (COX-2),Compound,Local SOD activity compared to Dex rats [1],Local SOD activity compared to untreated (negative control) rats [1],Local TBARS level compared to Dex group [1],Local TBARS level compared to Sol rats [1],"Local nitrites level (reduction, p < 0.05) [1]"
> 100 µM,"C[C@H](NC(=O)[C@@H](C)c1cccc(C(=O)c2ccccc2)c1)C(=O)O [Compound 2, ((S)-2-(3-benzoylphenyl)propanoyl)-L-alanine]",increase the SOD activity,increase the SOD activity,no statistical differences,reduce the TBARS level,markedly reduced
> 100 µM,"C[C@H](C(=O)N[C@@H](Cc1ccccc1)C(=O)O)c1cccc(C(=O)c2ccccc2)c1 [Compound 3, ((S)-2-(3-benzoylphenyl)propanoyl)-L-phenylalanine]",,,,,
37.5 ± 3.43 µM,"C[C@H](C(=O)N[C@@H](Cc1c[nH]c2ccccc12)C(=O)O)c1cccc(C(=O)c2ccccc2)c1 [Compound 4, ((S)-2-(3-benzoylphenyl)propanoyl)-L-tryptophan]",,,,,
